One molecule from ChEMBL document CHEMBL1201862, “PubChem BioAssay data set” (2004) can be followed below.

Among the test systems are MOLT-4; A498; UACC-257; NCI-H522; IGROV-1; MDA-MB-231; Malme-3M; SF-268; OVCAR-3; MDA-MB-435; CAKI-1; RXF 393; HL-60; MCF7; K562; UO-31; COLO 205; SR; NCI-H226; DU-145.
What all share (experiment): growth of human tumour cells (NCI), 48 h

Structures are written as SMILES.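 Each compound was tested at five concentrations against cells in 96-well plates for 48 hours. GI50 is the concentration that inhibits growth by half.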 Calls of active or inactive are those of the source. No stated cut-off is given here; in the data, active = GI50 up to about 1.1 µM and inactive = higher.

As to `CC(=O)Nc1c2sscc-2n(C)c1=O` [THIOLUTIN], the GI50 was 152 nM (active) with MOLT-4; 1860 nM (inactive) in the experiment on A498; 1570 nM (inactive) with UACC-257; 1300 nM (inactive) in the experiment with NCI-H522; 1860 nM (inactive) in the experiment on IGROV-1; 1730 nM (inactive) in the experiment with MDA-MB-231. In addition, the GI50 in the experiment with Malme-3M was 787 nM (active); with SF-268, 1560 nM (inactive); in the experiment on OVCAR-3 it was 1820 nM (inactive); in the experiment on MDA-MB-435 it was 1010 nM (active); in the experiment with CAKI-1, 1890 nM (inactive); in the experiment with RXF 393, 1710 nM (inactive). The GI50 with HL-60 is 512 nM (active); with MCF7, 630 nM (active); in the experiment on K562 it was 1520 nM (inactive); in the experiment on UO-31, 2100 nM (inactive); in the experiment with COLO 205, 596 nM (active); with SR, 235 nM (active). Further, the GI50 with NCI-H226 is 1890 nM (inactive); with DU-145 it was 634 nM (active).
